Source: US5693330A, “Skin care compositions containing melinamide and a retinoid” (priority 1996, dated 1997)
Like-named read-outs stand apart in the source and are kept apart here.

Test system: Human keratinocytes
Test: 3H-thymidine incorporation by cultured keratinocytes (keratinocyte proliferation)
Format: cell-based
Conditions: for effect on keratinocyte proliferation (summary): Examples 1-3; for activity at 0.1 µM / activity at 0.25 µM / activation at 0.25 µM / activation at 0.025 µM / activity at 0.025 µM: Homo sapiens, Keratinocyte; for activity at 0.1 µM / activity at 0.25 µM / activity at 0.025 µM: read-out: mean Thymidine incorp/μg protein (% control)
Method: Human keratinocytes, isolated from neonatal foreskin by trypsin treatment were grown in Dulbecco Modification Eagle (DME) Hams F12 (1:1) medium/10% fetal calf serum in the presence of irradiated 3T3 mouse fibroblasts for establishing dividing keratinocyte colonies. Cells were grown under the above condition until their second passage and kept frozen for future use. Frozen second passage keratinocytes were thawed and plated into the above medium and grown for five days before they were switched to a serum-free MCDB 153-based medium keratinocyte growth medium (KGM) from Clonetics Corporation, San Diego, Calif., containing 0.15 mM Ca, or keratinocyte serum-free media (KSFM) from GIBCO containing 0.09 mM Ca). On day 7, when the cells were 80-90% confluent, they were trypsinized and plated in the serum-free medium for the various experiments.
The incorporation of ^3 H-thymidine by cultured keratinocytes was used as an assay of keratinocyte proliferation. Thymidine is one of four deoxynucleosides which are the monomeric units of DNA, the universal library of genetic information in the animal kingdom. Prior to cell division of a somatic cell such as a keratinocyte, the complete genome of the cell undergoing cell division is replicated. This involves large scale DNA synthesis by the cell and enables both daughter cells to receive identical copies of the genetic material. When ^3 H-thymidine is included in the culture media of keratinocytes which are synthesizing DNA in preparation for cell division then the labelled nucleoside is incorporated into the newly synthesized DNA. The extent of incorporation of ^3 H-thymidine into a population of cells is proportional to the rate of DNA synthesis by this population of cells and therefore an indication of their cellular proliferation.
Keratinocytes (that were cultured as described above) were plated in 24 well plates at a density of 40,000 cells per well in 1 ml media. After incubation for four days or until the cells were 60-70% confluent, the media was changed. Test compounds were added (in triplicate) to the wells 24 hours after the media change, and four hours later 1 μCl ^3 H-Thymidine in 50 μl media was added per well. Cells were incubated for a further 24 hours. Media was removed from the cells, 10% ice cold trichloroacetic acid (TCA) added and plates were incubated on ice for 30 minutes. Cells were washed five times with 5% TCA and allowed to dissolve in 500 μl […] NaOH for at least one hour (usually overnight). The preparations were neutralized with 0.1M HCl; 50 μl of the cell preparation was used to determine total protein content. Disintegrations per minute (DPM) from ^3 H labelling of DNA was determined by liquid scintillation counting of […] of the cell preparation. Thymidine incorporation results were expressed as DPM/μg protein.
A. The effect on incorporation of ^3 H-thymidine μg soluble protein 24 hours after the addition of retinoic acid or retinol at various concentrations was examined.
The effect on incorporation of ^3 H-thymidine/μg soluble protein 24 hours after addition of the test compounds was examined and the combined results of three independent experiments were normalized to their respective ethanol controls.
The effect of melinamide and the retinyl ester (retinyl palmitate) on incorporation of ^3 H-thymidine was examined.

[1] = Example 2, 2.5 × 10^-8 M, n = 3, 24 hours, three experiments normalized to ethanol controls
[2] = read-out: increase in keratinocyte thymidine incorporation over the ethanol control

CCCCC/C=C\C/C=C\CCCCCCCC(=O)NC(C)c1ccccc1 (stereo not shown) [Melinamide, melinamide]
effect on keratinocyte proliferation on its own (Example 2, 10^-7 M): no effect
mean Thymidine incorp/μg protein ± s.d (Example 2, 10^-7 M, n = 3, 24 hours, three experiments normalized to ethanol controls): 4695 ± 324 DPM/μg protein
effect on keratinocyte proliferation on its own (Example 3, 10^-7 M): no effect
mean Thymidine incorp/μg protein ± s.d (Example 3, 10^-7 M): 4635 ± 608 DPM/μg protein
effect on keratinocyte proliferation (summary): little or no benefit on its own
activity at 0.1 µM (24 h, Example 2, 10^-7 M, n = 3, 24 hours): 91%
activity at 0.1 µM (24 h, Example 3, 10^-7 M): 84%

CCCCCCCCCCCCCCCC(=O)OC/C=C(C)/C=C/C=C(C)/C=C/C1=C(C)CCCC1(C)C [Retinyl palmitate, retinyl palmitate]
mean Thymidine incorp/μg protein ± s.d (Example 3, 2.5 × 10^-7 M): 5746 ± 113 DPM/μg protein
activity at 0.25 µM (24 h, Example 3, 2.5 × 10^-7 M): 104%

CC1=C(/C=C/C(C)=C/C=C/C(C)=C/C(=O)O)C(C)(C)CCC1 [RA, Retinoic acid]
keratinocyte proliferation over both the ethanol control and each of the retinol treatments (Example 1, 2.5×10^-7 M, 2.5×10^-8 and 2.5×10^-9 M): significantly increased keratinocyte proliferation
mean Thymidine incorp/μg protein ± s.d [1]: 6711 ± 402 DPM/μg protein
mean Thymidine incorp/μg protein ± s.d (Example 3, 2.5 × 10^-7 M): 7795 ± 370 DPM/μg protein
effect on keratinocyte proliferation (summary): increased keratinocyte proliferation
activity at 0.25 µM (24 h, Example 3, 2.5 × 10^-7 M): 142%
activation at 0.25 µM (read-out: increase in keratinocyte thymidine incorporation over the 2.5×10^-7 M retinyl palmitate treatment): 38%
activation at 0.025 µM (read-out: increase in keratinocyte thymidine incorporation over the 2.5×10^-8 M retinol treatment): 30%
activation at 0.025 µM [2]: 30%
activation at 0.25 µM [2]: 38%
activity at 0.025 µM (Example 2, 2.5 × 10^-8 M, n = 3, 24 hours): 130%

CC1=C(/C=C/C(C)=C/C=C/C(C)=C/CO)C(C)(C)CCC1 [ROH, Retinol]
mean Thymidine incorp/μg protein ± s.d [1]: 3956 ± 1303 DPM/μg protein
effect on keratinocyte proliferation (summary): completely ineffective at increasing keratinocyte proliferation
activity at 0.025 µM (24 h, Example 2, 2.5 × 10^-8 M, n = 3, 24 hours): 76%
